# From ChEMBL document CHEMBL2321710, “Bioactive polyhydroxylated steroids from the Hainan soft coral Sinularia depressa Tixier-Durivault” (Bioorg Med Chem Lett, 2013)
# What was measured:
# Staphylococcus aureus = test: Antibacterial activity against Staphylococcus aureus Newman […]; type: functional, organism-based
# [1] = target: Amyloid-beta precursor protein (Homo sapiens) (UniProt P05067); test: Neuroprotectivie activity against amyloid beta (25 to 35)-induced toxicity in human SH-SY5Y cells assessed as increase in cell viability at 10 uM incubated for 2 hrs prior to amyloid beta (25 to 35)-challenge measured after 24 hrs by MTT assay relative to control; type: functional, cell-based
# Amyloid-beta precursor protein (Homo sapiens), sequence (P05067 whole entry): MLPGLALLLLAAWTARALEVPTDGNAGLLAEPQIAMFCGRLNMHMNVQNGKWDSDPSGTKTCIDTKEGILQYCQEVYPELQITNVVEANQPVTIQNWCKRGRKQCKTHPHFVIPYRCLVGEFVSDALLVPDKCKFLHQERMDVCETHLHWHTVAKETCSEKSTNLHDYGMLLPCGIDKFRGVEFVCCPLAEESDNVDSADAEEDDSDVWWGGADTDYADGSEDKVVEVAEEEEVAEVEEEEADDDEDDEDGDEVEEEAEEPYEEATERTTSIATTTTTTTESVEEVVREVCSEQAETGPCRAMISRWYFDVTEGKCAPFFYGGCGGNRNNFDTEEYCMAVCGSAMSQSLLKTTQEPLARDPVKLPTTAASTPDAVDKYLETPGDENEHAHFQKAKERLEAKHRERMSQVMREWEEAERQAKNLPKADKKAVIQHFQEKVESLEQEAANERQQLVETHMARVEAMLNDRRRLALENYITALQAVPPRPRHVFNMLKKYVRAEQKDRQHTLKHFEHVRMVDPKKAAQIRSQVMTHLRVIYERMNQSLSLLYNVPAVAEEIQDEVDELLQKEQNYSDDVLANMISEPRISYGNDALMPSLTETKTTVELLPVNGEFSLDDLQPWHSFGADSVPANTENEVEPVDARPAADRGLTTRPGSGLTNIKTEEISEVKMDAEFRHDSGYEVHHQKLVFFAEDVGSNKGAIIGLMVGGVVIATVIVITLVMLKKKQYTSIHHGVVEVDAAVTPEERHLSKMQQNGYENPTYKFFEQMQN
# [2] = target: T1, Tyrosine-protein phosphatase non-receptor type 1 (Homo sapiens, UniProt P18031); test: Inhibition of human PTP1B
# T1 sequence (P18031 whole entry): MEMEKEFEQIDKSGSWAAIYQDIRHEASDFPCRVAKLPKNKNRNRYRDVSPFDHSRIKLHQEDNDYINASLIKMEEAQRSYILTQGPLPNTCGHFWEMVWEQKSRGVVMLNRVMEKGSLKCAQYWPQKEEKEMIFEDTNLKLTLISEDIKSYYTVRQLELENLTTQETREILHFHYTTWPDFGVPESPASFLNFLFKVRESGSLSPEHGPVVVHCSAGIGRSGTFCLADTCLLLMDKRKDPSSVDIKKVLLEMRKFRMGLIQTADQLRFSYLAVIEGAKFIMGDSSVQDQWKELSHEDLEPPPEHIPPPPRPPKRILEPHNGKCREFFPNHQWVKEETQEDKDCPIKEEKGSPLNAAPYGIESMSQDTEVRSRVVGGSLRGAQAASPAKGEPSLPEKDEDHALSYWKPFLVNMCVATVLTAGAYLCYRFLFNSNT
# [3] = Neuroprotectivie activity against serum deprivation-induced toxicity in human SH-SY5Y cells assessed as increase in cell viability at 10 uM relative to control; type: functional
SMILES,MIC50 (Staphylococcus aureus) [µM],IC50 [2] [µM],further results
C=C(CC[C@@H](C)[C@H]1CC[C@H]2[C@@H]3C[C@@H](O)[C@@]4(O)C[C@@H](O)CC[C@]4(COC(C)=O)[C@H]3CC[C@]12C)C(C)C [ARMATINOL B],15.6,,
C=C(CC[C@@H](C)[C@H]1CC[C@@H]2[C@]1(C)C[C@H](O)[C@@H]1[C@@]3(C)CC[C@H](O)[C@@H](C)[C@@H]3CC[C@@]21O)C(C)C,,,Activity [1]: 20.1%
C=C(CC[C@@H](C)[C@H]1CC[C@@H]2[C@]1(C)CC[C@@H]1[C@@]3(C)CC[C@H](OC(C)=O)[C@@H](C)[C@@H]3CC[C@@]21O)C(C)C,,22.7,
C=C(CC[C@@H](C)[C@H]1CC[C@H]2[C@@H]3CCC4=CC(=O)CC[C@]4(C)[C@H]3CC[C@]12C)C(C)C,,15.3,Activity [3]: 16.9%; Activity [1]: 16.6%
C=C(CC[C@@H](C)[C@H]1CC[C@H]2[C@@H]3[C@@H](OC(C)=O)C=C4C[C@@H](O)CC[C@]4(CO)[C@H]3CC[C@]12C)C(C)C,1000,,
C=C(CC[C@@H](C)[C@H]1CC[C@H]2[C@@H]3CC[C@H]4[C@H](C)[C@@H](O)CC[C@]4(C)[C@H]3CC[C@]12C)C(C)C,,19.5,
C[C@@H]1O[C@@H]1P(=O)(O)O [FOSFOMYCIN SODIUM],,,IC50 (Staphylococcus aureus): 137 µM
C=C(CC[C@@H](C)[C@H]1CC[C@@H]2[C@]1(C)CC[C@H]1[C@]23CC[C@]2(C[C@@H](O)CC[C@]12C)OO3)C(C)C,500,,
